Test results: patent US8304444B2, “Pyrazole carboxylic acid amides useful as microbiocides” (Syngenta Crop Protection, LLC, priority 2007, dated 2012)

Columns and labels:
Format in all cases: cell-based
Mycosphaerella arachidis = assay: Action against Mycosphaerella arachidis, fungal growth assay; conditions: 0.002% active ingredient, PDB broth, 24° C., photometric after 6-7 days
Description: (§1) Action Against Mycosphaerella arachidis (Early Leaf Spot of Groundnut; Cercospora arachidicola [anamorph])—Fungal Growth Assay Conidia of the fungus from cryogenic storage are directly mixed into nutrient broth (PDB potato dextrose broth). After placing a (DMSO) solution of the test compounds (0.002% active ingredient) into a microtiter plate (96-well format) the nutrient broth containing the fungal spores is added. The test plates are incubated at 24° C. and the inhibition of growth is measured photometrically after 6-7 days. The activity of a compound is expressed as fungal growth inhibition (0=no growth inhibition, ratings of 80% to 99% mean good to very good inhibition, 100%=complete inhibition). Compounds 1.01, 1.14 and 1.15 show very good activity in this test (≦80% inhibition). Compounds 1.07 and 2.01 show good activity in this test (≦50% inhibition).

Septoria tritici = assay: Action against Septoria tritici, fungal growth assay; conditions: Zymoseptoria tritici; 0.002% active ingredient, PDB broth, 24° C., photometric after 72 hrs
Description: as §1, with “Septoria tritici—Fungal” for “Mycosphaerella arachidis (Early Leaf Spot of Groundnut; Cercospora arachidicola [anamorph])—Fungal”, “determined” for “measured”, “72 hrs.” for “6-7 days.”, “1.07, 1.14, 1.15, 1.76” for “1.14”, “2.01” for “1.15”, “inhibition).” for “inhibition). Compounds 1.07 and 2.01 show good activity in this test (≦50% inhibition).”

Monographella nivalis = assay: Action against Monographella nivalis (snow mould), fungal growth assay; conditions: 0.002% active ingredient, PDB broth, 24° C., photometric after 72 hrs
Description: Action Against Monographella nivalis (Anamorph: Fusarium nivale, Microdochium nivale; Snow Mould)—Fungal Growth Assay Conidia of the fungus from cryogenic storage are directly mixed into nutrient broth (PDB potato dextrose broth). After placing a DMSO-solution of the test compounds (0.002% active ingredient) into a microtiter plate (96-well format) the nutrient broth containing the fungal spores is added. The test plates are incubated at 24° C. and the inhibition of growth is measured photometrically after 72 hrs (0=no growth inhibition, ratings of 80% to 99% mean good to very good inhibition, 100%=complete inhibition). Compounds 1.14 and 1.15 show very good activity in this test (≦80% inhibition).

[1] = test system: Pseudocercosporella herpotrichoides var. acuformis; assay: Action against Pseudocercosporella herpotrichoides var. acuformis (eyespot/cereals), fungal growth assay; conditions: Oculimacula yallundae; 0.002% active ingredient, PDB broth, 24° C., photometric after 72 hrs
Description: as §1, with “Pseudocercosporella herpotrichoides var. acuformis (Eyespot/Cereals)—Fungal” for “Mycosphaerella arachidis (Early Leaf Spot of Groundnut; Cercospora arachidicola [anamorph])—Fungal”, “determined” for “measured”, “72 hrs.” for “6-7 days.”, “(≦30%” for “(≦80%”, “inhibition).” for “inhibition). Compounds 1.07 and 2.01 show good activity in this test (≦50% inhibition).”

| SMILES | inhibition at 0.002 % strength (Mycosphaerella arachidis) | inhibition at 0.002 % strength (Septoria tritici) | inhibition at 0.002 % strength (Monographella nivalis) | inhibition at 0.002 % strength [1] |
| --- | --- | --- | --- | --- |
| COC(c1ccc(Cl)cc1Cl)C(C)NC(=O)c1cn(C)nc1C(F)F (centres unmarked) [Compound 1.14, 3-difluoromethyl-1-methyl-1H-pyrazole-4-carboxylic acid [2-(2,4-dichlorophenyl)-2-methoxy-1-methyl-ethyl]-amide] | ≤ 80% | ≤ 80% | ≤ 80% | ≤ 30% |
| CONC(c1ccc(Cl)cc1Cl)C(C)NC(=O)c1cn(C)nc1C(F)F (centres unmarked) [Compound 1.76, 3-difluoromethyl-1-methyl-1H-pyrazole-4-carboxylic acid [2-(2,4-dichlorophenyl)-2-methoxyamino-1-methyl-ethyl]-amide] |  | ≤ 80% |  |  |
